{
  "source": "patent US20250382588A1",
  "about": "“CHIMERIC AAV AND USES THEREOF” (priority 2023, published 2025)",
  "key": {"[1]": {"assay": "Rotation behavior after nigral EYFP control AAV and CNO", "format": "in vivo, mice", "conditions": "for rotation behavior (FIG. 6C): AAV8R12-G88P3-EYFP; for rotation behavior (FIG. 6C) / rotation behavior (FIG. 7C): n=5; for rotation behavior (FIG. 7C): AAV8R12-G88P7-EYFP", "procedure": "Mice were anesthetized with sodium pentobarbital (Nembutal; 80 mg/kg, i.p.), and then placed into a stereotaxic device (KOPF). Eye cream was applied on both corneas to avoid dehydration. The skull above the targeted areas was thinned with a dental drill and carefully removed. Injections were conducted with a 10 μL syringe connected to a 33-Gauge needle (Neuros; Hamilton), using a microsyringe pump (Legato 130, KD Scientific). A total volume of 200 nL virus was injected into the SNr at a speed of 20 nL/min. The coordinates for the SNr were 3.4 mm posterior, 1.3 mm lateral, 4.8 mm ventral to the bregma.\nMice that were used in the behavioral experiments were then implanted with guide cannulas (KOPF) unilaterally aiming at the dorsomedial striatum (0.5 mm anterior, 1.5 mm lateral, 3.5 mm ventral to the bregma). The cannulas were fixed to the skull with dental cement. Stainless steel obturators were inserted into the guide cannulas and were replaced every other day to maintain the patency until infusions were made. Mice were allowed to recover from the surgery for at least 3 weeks before further studies.\nMice were individually handled for 10-20 seconds per day for at least 5 days to habituate them to the experimenter. The open field test was conducted in a test apparatus (50 cm×50 cm×50 cm) with an HD digital camera (Sony) positioned above the arena. On day one, mice were habituated to the apparatus for 10 minutes. On day 2, mice were administrated saline (0.1 mL i.p. or 200 nL intracranially [i.c.] through the guide cannulas). On day 3, mice were administrated with Clozapine-N-oxide (CNO, Hello Bio, HB1807; 0.3 mg/kg i.p. or 200 nL at 100 μM i.e.). All behavioral tests were conducted 30 minutes after injection. During the test, mice were allowed to freely explore the apparatus for 10 minutes. The behavioral data were analyzed with ANY-maze software (Stoelting Co.)."}, "hM3Dq or rM3Ds": {"test_system": "hM3Dq or rM3Ds", "assay": "Locomotion test after nigral DREADD AAV and CNO in macaques", "format": "in vivo", "procedure": "To guide the virus injection in SNr, a guide grid of multiple holes spaced by 1 mm was installed on each subject vertically above the SN. By filling vitamin E in these holes, the accurate coordinates for injection could be obtained from the T1-weighted MRI images (3T Tim Trio scanner, Siemens). Virus injections were performed in nine sites covering the whole SNr, and a total volume of 27 μL virus was unilaterally injected in the right SNr at the speed of 300 nL/min.\nTo intracranially administrate drug and/or perform electrophysiological recording, a recording chamber covering from anterior caudate to posterior GPi was fixed on the skull with 6 titanium screws and dental cement. Each subject was allowed to recover from the surgery for at least 6 weeks prior to further studies.\n(§1) The locomotion tests for monkeys were conducted in a custom-made observation cage (100 cm×100 cm×100 cm). The top and front of the cage were made of toughened glass in order to gain a clear view for behavioral recording. Monkeys were habituated to the observation cage by placing them inside for 30 minutes on three separate days.\n(§2) For monkeys injected with AAV8R12-G88P3-HA-hM3Dq, CNO was intracranially infused into the dorsomedial caudate through the recording chamber. To infuse while the animal was awake, the monkey was trained to sit in a primate chair specially designed with its head fixed to the primate chair by a mask made of thermoplastic materials. Injections were conducted through a 33-Gauge needle connected to a 250 μL syringe via a polyethylene pipe (Hamilton, Neuros). […] The needle was held for 5 minutes for drug diffusion before retraction. […] Videos capturing the subjects' behavior were recorded for at least 90 minutes. Animal behaviors from 30-90 minutes after saline/CNO infusion were further analyzed and quantified.\n(§3) For rotation analysis, only movements that occurred lower than 30 cm on the z-axis were counted. To determine the direction of the rotation, we first computed the center for the rotation data in the x-y plane as (x0, y0) by averaging all data points, and then we computed the angle relative to (x0, y0) for each time point by the following formula:\n(§4) where θi represents the rotating angle at time i, and (xi, yi) represents the x-y coordinate at time i. We then calculated the change of rotating angle as Δθi=θi−θi-1. For right nigral injections, when Δθ<0, the direction of the rotation was anticlockwise and was labeled as a contraversive rotation. When Δθ>0, the direction of the rotation was clockwise and was labeled as an ipsiversive rotation. The raw data were analyzed and plotted through a custom R package. Code is available on Github (github.com/chenyef/PD_ana/blob/main/Behavior_ana.txt)."}, "[2]": {"assay": "Locomotion test in naive macaques after CNO", "format": "in vivo", "procedure": "as §1, §2, §3, §4"}, "[3]": {"conditions": "intracranial or systemic CNO, n=4"}},
  "data": [
    {"smiles": "C[N+]1([O-])CCN(C2=Nc3cc(Cl)ccc3Nc3ccccc32)CC1", "note": "[CNO, clozapine N-oxide]", "values": [
      {"measurement": "rotation behavior (FIG. 6C)", "setting": "[1]; CNO i.p.", "value": "44.72±10.89"},
      {"measurement": "rotation behavior (FIG. 6C)", "setting": "[1]; CNO intracranial", "value": "61.39±5.774"},
      {"measurement": "rotation behavior (FIG. 7C)", "setting": "[1]; CNO i.p.", "value": "46.88±7.497"},
      {"measurement": "rotation behavior (FIG. 7C)", "setting": "[1]; CNO intracranial", "value": "34.55±7.536"},
      {"measurement": "rotational behaviors, in words", "setting": "[1]; animals that received the EYFP control vector named at the place", "value": "didn't induce rotational behaviors"},
      {"measurement": "muscle tone of the contralateral biceps brachii (electromyogram)", "setting": "hM3Dq or rM3Ds; following CNO infusions", "value": "an increase in the muscle tone"},
      {"measurement": "immobile time (FIG. 10E)", "setting": "hM3Dq or rM3Ds; [3]", "value": "89.13±8.379"},
      {"measurement": "speed during contraversive rotations (FIG. 10G)", "setting": "hM3Dq or rM3Ds; [3]", "value": "46.98±6.669"},
      {"measurement": "total distance (FIG. 10F)", "setting": "hM3Dq or rM3Ds; [3]", "value": "97.37±19.41"},
      {"measurement": "velocity of ipsiversive rotations (FIG. 10H)", "setting": "hM3Dq or rM3Ds; [3]", "value": "41.37±6.566"},
      {"measurement": "immobile time (FIG. 11E)", "setting": "[2]; naive macaques, n=3", "value": "149.8±22.65"},
      {"measurement": "percentage of contraversive and ipsiversive rotation (FIG. 11C)", "setting": "[2]; naive macaques, n=3", "value": "0.8384±0.4152"},
      {"measurement": "speed of contraversive rotations (FIG. 11G)", "setting": "[2]; naive macaques, n=3", "value": "39.63±7.092"},
      {"measurement": "speed of ipsiversive rotations (FIG. 11H)", "setting": "[2]; naive macaques, n=3", "value": "42.79±4.705"},
      {"measurement": "time spending in the higher portion of the observing cages (FIG. 11D)", "setting": "[2]; naive macaques, n=3", "value": "60.43±4.542"},
      {"measurement": "total distance (FIG. 11F)", "setting": "[2]; naive macaques, n=3", "value": "59.48±18.65"},
      {"measurement": "behavioral changes in naïve monkeys, in words", "setting": "[2]; no viral injections", "value": "did not induce significant behavioral changes"}
    ]}
  ]
}
